For series [1], the system named is recombinant human VEGFR-2. In words: Solid phase binding assay: competition with biotinylated-VEGF165. The note with it: plate-coated rhVEGFR-2-Fc; biotinylated-VEGF165 2.4 nM, 1 h room temperature; Fig. 1. As for the experimental part: Ninety six-well plates were coated with the extracellular domain of recombinant human VEGFR-2 fused to the Fc domain of human IgG1 (rhVEGFR-2, R&D Systems, UK) by overnight incubation followed by blocking in 5 % bovine serum albumin/PBS. […] After washing, the biotinylated-VEGF165 was detected with avidin-horse-radish peroxidase and OPD substrate (Sigma-Aldrich, UK) followed by spectrophotometry.

The subject of series [2] is HuDMEC. The series is described as follows: VEGF165-induced cell migration (Boyden chamber). Format: cell-based, human. The following applies: 0.5 nM VEGF165, 4.5 h, up to 1 μM, n = 4. As for the experimental part: The ability of the p700 peptide to inhibit VEGF165-induced EC migration was determined using a multi-well Boyden chamber (Neuro Probe, Gaithersburg, USA). Briefly, serum-starved HuDMEC were treated with p700 for 1 h, washed and plated in the upper chamber in EBM-2 medium containing 1 % FCS on an 8 μm fibronectin pre-coated polycarbonate filter (Neuro Probe, Gaithersburg, USA). The cells were then left to migrate across the filter for 4.5 h at 37 °C with media containing 0.5 nM VEGF165 in the presence and absence of inhibitors in the lower chamber. After the incubation, non-migrating cells on the upper side of the membrane were scraped off and the migrated cells were stained with Hema Gurr® rapid staining kit (Merck Chemicals Ltd, Nottingham, UK). Migrated cells were counted using a light microscope at 160× magnification in three random fields per well of three separate wells.

The subject of series [3] is HuDMEC. The series is described as follows: VEGF165-induced cell proliferation (BrdU). Format: cell-based, human. The note with it: peptide 1 h then 0.5 nM VEGF165 24 h, up to 1 μM, n = 4. The method, then: Human dermal microvascular endothelial cells were serum-starved followed by incubating with p700 peptide for 1 h and then 0.5 nM of VEGF165 for 24 h at 37 °C. Cell proliferation was determined using a BrdU cell proliferation assay kit (Merck Chemicals Ltd, Nottingham, UK).

In series [4] the test system is HuDMEC. In words: Tube formation assay on Matrigel. Format: cell-based, human. The method, then: Serum-starved HuDMEC were seeded onto Matrigel™ matrix pre-coated 96 well plates (BD Biosciences, Cowley, Oxford, UK) at a density of 1 × 10^4 cells/well in 100 μl EBM-2 medium. Peptides were then added into each corresponding well and incubated for 1 h at 37 °C, followed by stimulated with growth factors, 0.5 nM VEGF165, 1 nM PDGF-BB or 1.6 nM bFGF, to induce tubule development. The tubules formed were examined 6 h after stimulation under a low power (40×) light microscope. Images were captured and analysed by measuring the average tubule length using ImageJ software (National Institutes of Health, USA).

Another series concerns PI3K. In words: Immunoblotting of VEGF165-induced PI3K phosphorylation. The series is classed as cell-based, human. The note with it: 1 μM, HuDMEC, western blot; n = 3. The method, then: (§1) Transfected HUVEC or HuDMEC pre-treated with 1 μM test peptides for 1 h, were stimulated with 0.5 nM of VEGF165 for 2, 5 or 10 min. Cells were lysed and phosphorylated proteins detected by western blotting using phospho-specific antibodies to either VEGFR-2, Erk1/2 or PI3K (New England BioLabs, UK). Band intensities were quantified using Bio-Rad Quantity One Analysis software and normalized using U, un-stimulated control, as 0 %; and VEGF165, positive control, as 100 % of protein phosphorylation.

For the next series, the system named is VEGFR-2. In words: Immunoblotting of VEGF165-induced VEGFR-2 phosphorylation. The series is classed as cell-based, human. The note with it: 1 μM, HuDMEC, western blot; n = 3. As for the experimental part: as §1
Background: Immunoblotting shows a protein as a band on a membrane.

Series [5] deals with HuDMEC. In words: Toxicity to HuDMEC by propidium iodide staining. The series is classed as cell-based, human. The note with it: data not shown.
A further series relates to FGFR1. The note with it: cited from earlier work. An excerpt:
(§2) TIMP-3 appears to bind VEGFR-2 specifically, with no inhibition of the closely related VEGFR-1, FGFR1 or PDGFR-β receptors.

A further series has as its system VEGFR-1. The following applies: cited from earlier work.
Excerpt: as §2

In the next series the test system is PDGFR-β. The note with it: cited from earlier work.
Excerpt: as §2

Take GLKLEVNKYQYLLTGR [p323]: the “ability to inhibit the binding of VEGF165 to rhVEGFR-2” value in [1] was “not”.

“fibrinopeptide A (ADSGEGDFLAEGGGVR; Fibrinopeptide A; UniProt P02671 20-35, looked up) [control peptide, 16 amino acid biologically inert control peptide, purchased from Bachem, reference compound]”: the “maximum inhibition of VEGF165-induced migration” value in the series with HuDMEC [2] is given as “no significant effect”. The “maximum inhibition of VEGF165-induced cell proliferation” value with HuDMEC [3] is on record as “no significant effect”. Besides, the “inhibition of VEGF165-induced HuDMEC tube formation” value in the series on HuDMEC [4] (1 μM peptide, 0.5 nM VEGF165, 6 h, n = 4) is recorded as “no significant effect”. Moreover, the “inhibition of tubule formation in response to VEGF121” value in the series on HuDMEC [4] (1 μM peptide, VEGF121, n = 4) is “no significant effect”. Also, the “inhibition of VEGF165-induced phosphorylation of PI3K” value with PI3K is “no significant effect”. The “inhibition of VEGF165-induced VEGFR-2 phosphorylation” value in the series on VEGFR-2 was “no significant effect”. Besides, the “concentration showing some toxicity to HuDMEC” value in the series with HuDMEC [5] was at least 10 µM.

B1: full length TIMP-3: recombinant human tissue inhibitor of metalloproteinases-3, His-tagged, from High Five insect cells (protein)
chain: CTCSPSHPQDAFCNSDIVIRAKVVGKKLVKEGPFGTLVYTIKQMKMYRGFTKMPHVQYIHTEASESLCGLKLEVNKYQYLLTGRVYDGKMYTGLCNFVERWDQLTLSQRKGLNYRYHLGCNCKIKSCYYLPCFVTSKNECLWTDMLSNFGYPGYQSKHYACIRQKGGYCSWYRGWAPPDKSIINATDP
modifications: left off: His6, C-terminal, state not stated
On to B1, for which the “inhibition of bFGF-induced tubule formation” value in the series with HuDMEC [4] (HuDMEC, 1.6 nM bFGF, 6 h, n = 3, Fig. 3b) is recorded as “some inhibition”. In addition, the “inhibition of VEGF165-induced VEGFR-2 phosphorylation” value in the series on VEGFR-2 was 45%. The “inhibition of FGFR1” value in the series with FGFR1 is reported as “no inhibition”. In the series on VEGFR-1, the “inhibition of VEGFR-1” value is given as “no inhibition”. Further, the “inhibition of PDGFR-β” value with PDGFR-β is “no inhibition”. Also, the “ability to inhibit the binding of VEGF165 to rhVEGFR-2” value in [1] is “able to inhibit”.
